Data on 31 compounds can be found in patent publication US20240051985A1, “METTL3 MODULATORS” (ACCENT THERAPEUTICS, INC., priority 2020, published 2024).

The target in experiment [1] is PRMT5-MEP50 (Homo sapiens, UniProt O14744). Put plainly: PRMT5 assay (3H-SAM flashplate). The following applies: PRMT5 biochemical assay. As for the experimental part:
Assays were performed in a 25 μl-volume in 384-well V-bottom polypropylene microplates (Greiner Bio-One, cat. No. 781280) at ambient temperature. Optimized 1× assay buffer was 20 mM Tris-HCl pH 8.0, 1 mM DTT, […]. For compound screening PRMT5-MEP50 (final concentration, f.c.=2.5 nM) was added using a Multidrop Combi (ThermoFisher Scientific, Waltham, MA) and preincubated for 5 min. Reactions were started by adding 3′ biotinylated histone H4 peptide acetylated on serine 1 (Ac-[…]-Biotin) (f.c.=100 nM) and 3H-SAM (f.c.=250 nM) substrates. Reactions proceeded for 60 minutes and were quenched with excess non-radioactive SAM (f.c.=15 μM). The reactions were then transferred to streptavidin-coated flashplates and incubated for 2 hours at 25° C. Following two washing cycles with 0.1% Tween-20, the plates were sealed and read on a TopCount (PerkinElmer, Waltham, MA) plate-based scintillation counter. For determination of kinetic parameters, reaction times were optimized so that measurements were taken during the initial velocity phase of the reaction.

The target of experiment [2] is METTL3/METTL14 (Homo sapiens, UniProt Q86U44). Put plainly: METTL3-14 standard enzyme assay (3H-SAM flashplate). The following applies: METTL3 biochemical assay. As for the experimental part: METTL3-14 Standard Enzyme Assay
Assays were performed in a 25 μl-volume in 384-well V-bottom polypropylene microplates (Greiner Bio-One, cat. No. 781280) at ambient temperature. Optimized 1× assay buffer was 20 mM HEPES pH 7.5, 50 mM KCl, 250 μM MgCl2, 1 mM DTT, 0.01% Tween, 0.01% BSG, 0.004 U/μl RNAseOUT (cat. No. 10777019, ThermoFisher Scientific, Waltham, MA). For compound screening METTL3/METTL14 (final concentration, f.c.=2.5 nM) was added using a Multidrop Combi (ThermoFisher Scientific, Waltham, MA) and preincubated for 5 min. Reactions were started by adding 3′ biotinylated RNA (UCUGGACUAAA-biotin) (f.c.=100 nM) and 3H-SAM (f.c.=100 nM) substrates. Reactions proceeded for 30 minutes and were quenched with excess non-radioactive SAM (f.c.=15 μM). The reactions were then transferred to streptavidin-coated flashplates and incubated for 2 hours at 25° C. Following two washing cycles with 0.1% Tween-20, the plates were sealed and read on a TopCount (PerkinElmer, Waltham, MA) plate-based scintillation counter. For determination of kinetic parameters, reaction times were optimized so that measurements were taken during the initial velocity phase of the reaction.

METTL3/METTL14, sequence (Q86U44 whole entry, species assumed): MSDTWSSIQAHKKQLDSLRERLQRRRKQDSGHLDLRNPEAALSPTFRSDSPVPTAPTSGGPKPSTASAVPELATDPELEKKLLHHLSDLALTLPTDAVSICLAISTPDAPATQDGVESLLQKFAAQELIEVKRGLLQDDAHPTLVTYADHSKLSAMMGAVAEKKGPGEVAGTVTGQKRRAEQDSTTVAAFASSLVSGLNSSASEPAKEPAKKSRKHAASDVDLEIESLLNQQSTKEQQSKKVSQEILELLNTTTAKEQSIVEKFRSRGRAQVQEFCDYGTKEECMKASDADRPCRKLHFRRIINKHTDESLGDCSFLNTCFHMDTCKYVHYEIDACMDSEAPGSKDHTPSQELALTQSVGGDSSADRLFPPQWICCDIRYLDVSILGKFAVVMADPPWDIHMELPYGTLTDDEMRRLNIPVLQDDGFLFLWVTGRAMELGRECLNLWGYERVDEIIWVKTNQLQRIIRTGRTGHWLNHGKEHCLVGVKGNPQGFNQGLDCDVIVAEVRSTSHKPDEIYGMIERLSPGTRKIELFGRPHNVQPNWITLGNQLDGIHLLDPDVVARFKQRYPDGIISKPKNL
METTL3/METTL14, sequence (Q9HCE5 whole entry partner, species assumed): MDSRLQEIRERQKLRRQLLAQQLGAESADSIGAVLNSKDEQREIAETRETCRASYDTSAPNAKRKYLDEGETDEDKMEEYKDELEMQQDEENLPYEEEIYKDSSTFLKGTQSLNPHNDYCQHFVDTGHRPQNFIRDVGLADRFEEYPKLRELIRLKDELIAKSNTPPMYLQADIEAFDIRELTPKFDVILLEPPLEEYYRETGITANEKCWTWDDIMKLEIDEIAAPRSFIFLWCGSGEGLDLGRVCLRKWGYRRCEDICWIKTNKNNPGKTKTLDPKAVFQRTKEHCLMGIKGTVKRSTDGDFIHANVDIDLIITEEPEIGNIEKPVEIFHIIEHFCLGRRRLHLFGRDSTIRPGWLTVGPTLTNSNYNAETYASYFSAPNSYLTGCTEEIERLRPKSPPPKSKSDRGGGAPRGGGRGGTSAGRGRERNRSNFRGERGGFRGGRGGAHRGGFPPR
PRMT5-MEP50, sequence (O14744 whole entry): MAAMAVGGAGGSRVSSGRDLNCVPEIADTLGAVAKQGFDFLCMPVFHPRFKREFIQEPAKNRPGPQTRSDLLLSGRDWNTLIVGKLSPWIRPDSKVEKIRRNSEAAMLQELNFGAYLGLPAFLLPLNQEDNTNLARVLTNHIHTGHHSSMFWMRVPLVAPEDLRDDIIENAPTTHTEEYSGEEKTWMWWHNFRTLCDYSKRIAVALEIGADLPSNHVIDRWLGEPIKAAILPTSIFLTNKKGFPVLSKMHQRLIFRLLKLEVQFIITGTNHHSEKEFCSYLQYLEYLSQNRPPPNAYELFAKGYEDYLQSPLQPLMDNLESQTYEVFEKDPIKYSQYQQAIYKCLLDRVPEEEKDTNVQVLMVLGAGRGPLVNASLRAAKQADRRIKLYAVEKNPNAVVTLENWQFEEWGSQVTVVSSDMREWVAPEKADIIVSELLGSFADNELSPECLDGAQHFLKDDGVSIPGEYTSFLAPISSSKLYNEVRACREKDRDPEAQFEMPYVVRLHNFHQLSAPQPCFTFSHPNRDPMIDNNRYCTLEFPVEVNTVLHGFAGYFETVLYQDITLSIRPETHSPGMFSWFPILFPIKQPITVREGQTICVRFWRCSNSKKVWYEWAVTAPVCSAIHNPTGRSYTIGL
PRMT5-MEP50, sequence (Q9BQA1 whole entry partner): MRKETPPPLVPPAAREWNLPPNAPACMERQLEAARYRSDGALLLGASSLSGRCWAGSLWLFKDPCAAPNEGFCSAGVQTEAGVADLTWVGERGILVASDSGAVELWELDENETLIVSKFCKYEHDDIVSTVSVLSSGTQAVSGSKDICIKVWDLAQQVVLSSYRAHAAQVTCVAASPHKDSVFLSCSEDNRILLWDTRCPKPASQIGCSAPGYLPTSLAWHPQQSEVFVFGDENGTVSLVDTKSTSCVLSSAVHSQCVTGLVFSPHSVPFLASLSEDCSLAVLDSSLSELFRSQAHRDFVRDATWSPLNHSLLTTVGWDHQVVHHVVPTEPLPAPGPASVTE

A word on the IC50: it is the concentration that inhibits the measured activity by half. Regarding `Cn1ccc(-c2cn([C@@H]3O[C@H](C(=O)NC4CCN(CC5CCC5)CC4)[C@@H](O)[C@H]3O)c3ncnc(N)c23)n1` [Compound I-223], the IC50 in experiment [1] (Table 4) and in experiment [2] (Table 4) was 0.01 to 0.1 µM in each case.
Turning to `Cn1ccc(-c2cn([C@@H]3O[C@H](C(=O)N[C@H]4C[C@H](O)C4)[C@@H](O)[C@H]3O)c3ncnc(N)c23)n1` [Compound I-215], the IC50 in experiment [1] (Table 4) and in experiment [2] (Table 4) was at least 1 µM in each case.
For `Cn1ccc(-c2cn([C@@H]3O[C@H](C(=O)NCC4CCNCC4)[C@@H](O)[C@H]3O)c3ncnc(N)c23)n1` [Compound I-2], the 50% inhibitory concentration (IC50) in experiment [1] (Table 3) is 0.01 to 0.1 µM; in experiment [2] (Table 3), 0.1 to 1 µM.
Take `Cn1ccc(-c2cn([C@@H]3O[C@H](C(=O)NC4CCS(=O)(=O)C4)[C@@H](O)[C@H]3O)c3ncnc(N)c23)n1` (some centres unmarked) [Compound I-213]: the IC50 in experiment [1] (Table 4) and in experiment [2] (Table 4) was at least 1 µM in each case.
For `Cn1ccc(-c2cn([C@@H]3O[C@H](C(=O)NCC4CCN(CCO)CC4)[C@@H](O)[C@H]3O)c3ncnc(N)c23)n1` [Compound I-19], the figures for the IC50 in experiment [1] (Table 3) and in experiment [2] (Table 3) were 0.01 to 0.1 µM and 0.1 to 1 µM, respectively.
With “(2S,3S,4R,5R)-5-[4-amino-5-(1-methyl-1H-pyrazol-3-yl)-7H-pyrrolo[2,3-d]pyrimidin-7-yl]-3,4-dihydroxy-N-{3-[(methylcarbamoyl)amino]propyl}-N-(1-methylpiperidin-4-yl)oxolane-2-carboxamide [Compound I-50]”, the IC50 is 0.1 to 1 µM in experiment [1] (Table 4) and at least 1 µM in experiment [2] (Table 4).
Taken in the same sequence, the figures for `CN1CCC[C@H](NC(=O)[C@H]2O[C@@H](n3cc(-c4ccn(C)n4)c4c(N)ncnc43)[C@H](O)[C@@H]2O)C1` [Compound I-230] were 0.01 to 0.1 µM and at least 1 µM.
Regarding `Cn1ccc(-c2cn([C@@H]3O[C@H](C(=O)N[C@H]4C[C@@H](O)C4)[C@@H](O)[C@H]3O)c3ncnc(N)c23)n1` [Compound I-214], the 50% inhibitory concentration (IC50) in experiment [1] (Table 4) and in experiment [2] (Table 4) was at least 1 µM each time.
Consider `Cn1ccc(-c2cn([C@@H]3O[C@H](C(=O)NCC4CCN(CC(F)F)CC4)[C@@H](O)[C@H]3O)c3ncnc(N)c23)n1` [Compound I-23], for which the figures for the IC50 in experiment [1] (Table 3) and in experiment [2] (Table 3) were 0.1 to 1 µM and at least 1 µM, respectively.
`C[C@H]1C[C@@H](NC(=O)[C@H]2O[C@@H](n3cc(-c4ccn(C)n4)c4c(N)ncnc43)[C@H](O)[C@@H]2O)CCN1C` [Compound I-232]: the IC50 in experiment [1] (Table 4) and in experiment [2] (Table 4) was 0.1 to 1 µM in each case.
On to `CN(C)CCCN(C(=O)[C@H]1O[C@@H](n2cc(-c3ccn(C)n3)c3c(N)ncnc32)[C@H](O)[C@@H]1O)C1CCN(C)CC1` [Compound I-51, (2S,3S,4R,5R)-5-[4-amino-5-(1-methyl-1H-pyrazol-3-yl)-7H-pyrrolo[2,3-d]pyrimidin-7-yl]-N-[3-(dimethylamino)propyl]-3,4-dihydroxy-N-(1-methylpiperidin-4-yl)oxolane-2-carboxamide], for which the IC50 in experiment [1] (Table 4) and in experiment [2] (Table 4) was 0.1 to 1 µM in each case.
For `Cn1ccc(-c2cn([C@@H]3O[C@H](C(=O)N(CC[C@H](N)C(=O)O)c4ccc5nc(N)[nH]c5c4)[C@@H](O)[C@H]3O)c3ncnc(N)c23)n1` [Compound I-39, (2S)-2-amino-4-[N-(2-amino-1H-1,3-benzodiazol-6-yl)-1-[(2S,3S,4R,5R)-5-[4-amino-5-(1-methyl-1H-pyrazol-3-yl)-7H-pyrrolo[2,3-d]pyrimidin-7-yl]-3,4-dihydroxyoxolan-2-yl]formamido]butanoic acid], the IC50 is at least 1 µM in experiment [1] (Table 4) and 0.1 to 1 µM in experiment [2] (Table 4).
The like results for `Cn1ccc(-c2cn([C@@H]3O[C@H](C(=O)NC4CCN(CCN)CC4)[C@@H](O)[C@H]3O)c3ncnc(N)c23)n1` [Compound I-41, (2S,3S,4R,5R)-5-[4-amino-5-(1-methyl-1H-pyrazol-3-yl)-7H-pyrrolo[2,3-d]pyrimidin-7-yl]-N-[1-(2-aminoethyl)piperidin-4-yl]-3,4-dihydroxyoxolane-2-carboxamide] were, in that order, at least 1 µM and at least 1 µM.
For `Cn1ccc(-c2cn([C@@H]3O[C@H](C(=O)N(CCCO)C4CCNCC4)[C@@H](O)[C@H]3O)c3ncnc(N)c23)n1` [Compound I-8], the IC50 in experiment [1] (Table 3) was under 0.01 µM; in experiment [2] (Table 3) it was 0.1 to 1 µM.
Consider `CN1CCC(N(CCCc2cnoc2)C(=O)[C@H]2O[C@@H](n3cc(-c4ccn(C)n4)c4c(N)ncnc43)[C@H](O)[C@@H]2O)CC1` [Compound I-152], for which the concentration for half-maximal inhibition (IC50) in experiment [1] (Table 4) and in experiment [2] (Table 4) was 0.1 to 1 µM each time.
Take `Cn1ccc(-c2cn([C@@H]3O[C@H](C(=O)NC4CCN(C(=O)OCc5ccccc5)CC4)[C@@H](O)[C@H]3O)c3ncnc(N)c23)n1` [Compound I-225]: the IC50 in experiment [1] (Table 4) and in experiment [2] (Table 4) was 0.1 to 1 µM each time.
In the case of `CN1CC(NC(=O)[C@H]2O[C@@H](n3cc(-c4ccn(C)n4)c4c(N)ncnc43)[C@H](O)[C@@H]2O)C1` [Compound I-216], the IC50 lay within 0.01 to 0.1 µM in experiment [1] (Table 4) and 0.1 to 1 µM in experiment [2] (Table 4).
The like results for `Cn1ccc(-c2cn([C@@H]3O[C@H](C(=O)N4CCC[C@H](C(N)=O)C4)[C@@H](O)[C@H]3O)c3ncnc(N)c23)n1` [Compound I-200] were, in that order, at least 1 µM and at least 1 µM.
Consider `CN1CCC(CNC(=O)[C@H]2O[C@@H](n3cc(-c4ccn(C)n4)c4c(N)ncnc43)[C@H](O)[C@@H]2O)CC1` [Compound I-24], for which the IC50 in experiment [1] (Table 3) fell in the range of 0.01 to 0.1 µM; in experiment [2] (Table 3) it was 0.1 to 1 µM.
Turning to `CN1CCC(N(CCCNc2ccccn2)C(=O)[C@H]2O[C@@H](n3cc(-c4ccn(C)n4)c4c(N)ncnc43)[C@H](O)[C@@H]2O)CC1` [Compound I-153], the IC50 in experiment [1] (Table 4) is 0.01 to 0.1 µM; in experiment [2] (Table 4), at least 1 µM.
Take `Nc1ncnc2c1ccn2[C@@H]1O[C@H](C(=O)NCC2CCN(CC(F)F)CC2)[C@@H](O)[C@H]1O` [Compound I-28]: the IC50 in experiment [1] (Table 3) and in experiment [2] (Table 3) was at least 1 µM throughout.
In the case of `Cn1ccc(-c2cn([C@@H]3O[C@H](C(=O)NCc4cnccn4)[C@@H](O)[C@H]3O)c3ncnc(N)c23)n1` [Compound I-20], the values for the IC50 in experiment [1] (Table 3) and in experiment [2] (Table 3) were at least 1 µM and 0.1 to 1 µM, respectively.
For `Cn1ccc(-c2cn([C@@H]3O[C@H](C(=O)NC4CCC5(CC4)CNC5)[C@@H](O)[C@H]3O)c3ncnc(N)c23)n1` [Compound I-208], the IC50 in experiment [1] (Table 4) and in experiment [2] (Table 4) was 0.1 to 1 µM in each case.
With `COCCNC(=O)[C@H]1O[C@@H](n2cc(-c3ccn(C)n3)c3c(N)ncnc32)[C@H](O)[C@@H]1O` [Compound I-3], the IC50 in experiment [1] (Table 3) and in experiment [2] (Table 3) was at least 1 µM in each case.
For the compound `Cn1ccc(-c2cn([C@@H]3O[C@H](C(=O)NCc4ccccc4)[C@@H](O)[C@H]3O)c3ncnc(N)c23)n1` [Compound I-26], the IC50 was at least 1 µM in experiment [1] (Table 3) and 0.1 to 1 µM in experiment [2] (Table 3).
As for `COCCCN(C(=O)[C@H]1O[C@@H](n2cc(-c3ccn(C)n3)c3c(N)ncnc32)[C@H](O)[C@@H]1O)C1CCNCC1` [Compound I-7], the IC50 in experiment [1] (Table 3) is 0.01 to 0.1 µM; in experiment [2] (Table 3), at least 1 µM.
Take `CN1CCC(NC(=O)[C@H]2C[C@@H](n3cc(-c4ccn(C)n4)c4c(N)ncnc43)C[C@@H]2O)CC1` [Compound I-55, (1S,2S,4R)-4-(4-amino-5-(1-methyl-1H-pyrazol-3-yl)-7H-pyrrolo[2,3-d]pyrimidin-7-yl)-2-hydroxy-N-(1-methylpiperidin-4-yl)cyclopentane-1-carboxamide]: the IC50 in experiment [1] (Table 4) and in experiment [2] (Table 4) was at least 1 µM throughout.
`CN1CCC(N(CCCNC(=O)OCc2ccccc2)C(=O)[C@H]2O[C@@H](n3cc(-c4ccn(C)n4)c4c(N)ncnc43)[C@H](O)[C@@H]2O)CC1` [Compound I-49, benzyl N-(3-{1-[(2S,3S,4R,5R)-5-[4-amino-5-(1-methyl-1H-pyrazol-3-yl)-7H-pyrrolo[2,3-d]pyrimidin-7-yl]-3,4-dihydroxyoxolan-2-yl]-N-(1-methylpiperidin-4-yl)formamido}propyl)carbamate]: the figures for the IC50 in experiment [1] (Table 4) and in experiment [2] (Table 4) were 0.01 to 0.1 µM and 0.1 to 1 µM, respectively.
Consider `CN1CCC(NC(=O)[C@H]2O[C@@H](n3ccc4c(N)ncnc43)[C@H](O)[C@@H]2O)CC1` [Compound I-27], for which the IC50 in experiment [1] (Table 3) was 0.1 to 1 µM; in experiment [2] (Table 3), at least 1 µM.
Taken in the same sequence, the figures for `Cn1ccc(-c2cn([C@@H]3O[C@H](C(=O)N(CC[C@H](N)C(=O)O)C4CCNCC4)[C@@H](O)[C@H]3O)c3ncnc(N)c23)n1` [Compound I-9] were at least 1 µM and 0.1 to 1 µM.
Turning to `CN1CCC(N(CC2CN(C)C2)C(=O)[C@H]2O[C@@H](n3cc(-c4ccn(C)n4)c4c(N)ncnc43)[C@H](O)[C@@H]2O)CC1` [Compound I-47], the IC50 in experiment [1] (Table 4) was 0.01 to 0.1 µM; in experiment [2] (Table 4), at least 1 µM.
